Assay results as given in publication PMC3242765, “Inhibitors of Alphavirus Entry and Replication Identified with a Stable Chikungunya Replicon Cell Line and Virus-Based Assays” (PLoS ONE, 2011).
Values joined by “and” are separate entries in the source; they are usually repeats but may differ in a detail not shown here. Identical values can stand only once. Counter-ions that a name gives are not always drawn.

Tests used:
CHIKV replicon = experiment: microbe, parasite or virus in culture; type: cell-based, Chikungunya virus (CHIKV)

SMILES	CHIKV replicon % left (CHIKV replicon)	SFV replication % left (surviving fraction, remaining percentage of SFV replication) (SFV-Rluc)
COc1ccc(Cc2nccc3cc(OC)c(OC)cc23)cc1OC [Papaverine]	78.2%	99.3%
CC(C)(C)NC[C@H](O)COc1ccccc1C1CCCC1 [Penbutolol]	39.4%	45.0%
CCCC(C)C1(CC)C(=O)NC(=O)NC1=O (centres unmarked) [Pentobarbital]	104.3%	70.5%
CCOc1ccc(NC(C)=O)cc1 [Phenacetin]	100.8% and 94.3%	71.8% and 80.6%
CCC1(c2ccccc2)C(=O)NC(=O)NC1=O [Phenobarbital sodium]	70.8%	88.1%
CCC1(c2ccccc2)C(=O)NC(=O)NC1=O [Phenobarbital]	43.2%	58.6%
O=C(Oc1ccccc1)c1ccccc1O [Phenyl salicylate]	94.3%	118.2%
CCCCC1C(=O)N(c2ccccc2)N(c2ccccc2)C1=O [Phenylbutazone]	100.5%	96.7%
CNC(C)Cc1ccc(O)cc1.CNC(C)Cc1ccc(O)cc1.O=S(=O)(O)O (centres unmarked) [Pholedrine sulfate]	81.5%	92.8%
O=C(O)c1ccccc1C(=O)O [Phthalic acid]	96.6%	143.7%
CC(=O)NS(=O)(=O)c1ccc(NC(=O)c2ccccc2C(=O)O)cc1 [Phthalylsulfacetamide]	85.4%	110.6%
O=C(O)c1ccccc1C(=O)Nc1ccc(S(=O)(=O)Nc2nccs2)cc1 [Phthalylsulfathiazole]	100.5%	113.7%
CC(C)NCC(O)COc1cccc2[nH]ccc12 (centres unmarked) [Pindolol]	72.1%	86.2%
CC(=O)Nc1ccc(OCC(O)CNC(C)C)cc1 (centres unmarked) [Practolol]	61.5%	117.3%
C[C@]12C=CC(=O)C=C1CC[C@@H]1[C@@H]2[C@@H](O)C[C@@]2(C)[C@H]1CC[C@]2(O)C(=O)CO [Prednisolone]	84.3%	104.2%
C[C@]12C=CC(=O)C=C1CC[C@@H]1[C@@H]2C(=O)C[C@@]2(C)[C@H]1CC[C@]2(O)C(=O)CO [Prednisone]	54.4%	85.0%
CCC1(c2ccccc2)C(=O)NCNC1=O [Primidone]	41.6%	127.1%
CCN(CC)CCNC(=O)c1ccc(N)cc1 [Procainamide hydrochloride]	100.4%	89.0%
CCN(CC)CCOC(=O)c1ccc(N)cc1 [Procaine hydrochloride]	84.3%	105.4%
CN1CCN(CCCN2c3ccccc3Sc3ccc(Cl)cc32)CC1 [Prochlorperazine]	71.9%	51.4%
Oc1cc(O)c2c(c1)O[C@H](c1ccc(O)c(O)c1)[C@H](O)[C@H]2c1c(O)cc(O)c2c1O[C@H](c1ccc(O)c(O)c1)[C@@H](O)C2 [Procyanidin B1]	104.7%	128.1%
Oc1cc(O)c2c(c1)O[C@H](c1ccc(O)c(O)c1)[C@H](O)[C@H]2c1c(O)cc(O)c2c1O[C@H](c1ccc(O)c(O)c1)[C@H](O)C2 [Procyanidin B2]	101.9%	93.7%
CC(CN1c2ccccc2Sc2ccccc21)N(C)C (centres unmarked) [Promethazine hydrochloride]	39.2%	48.8%
CC(C)NCC(O)c1ccc2ccccc2c1 (centres unmarked) [Pronethalol]	29.9%	62.9%
CC(C)[N+](C)(CCOC(=O)C1c2ccccc2Oc2ccccc21)C(C)C [Propantheline bromide]	104.2%	77.0%
CC(C)NCC(O)COc1cccc2ccccc12 (centres unmarked) [Propranolol hydrochloride]	105.4%	74.0%
Cc1c(C(C)C)c(=O)n(-c2ccccc2)n1C [Propyphenazone]	81.1%	50.9%
CN(C)CCCN1c2ccccc2Sc2cccnc21.Cl [Prothipendyl hydrochloride]	11.2%	7.4%

SMILES	CHIKV replicon % left (CHIKV replicon)	SFV replication % left (surviving fraction, remaining percentage of SFV replication) (SFV-Rluc)
CC(Cc1ccc2c(c1)OCO2)NCC(O)c1ccc(O)c(O)c1 (centres unmarked) [Protokylol hydrochloride]	85.4%	128.4%
Cc1ncc(CO)c(CO)c1O [Pyridoxine hydrochloride]	71.1%	100.9%
COc1ccc(CN(CCN(C)C)c2ccccn2)cc1 [Pyrilamine maleate]	85.4%	73.7%
O=c1c(O)c(-c2ccc(O)c(O)c2)oc2cc(O)c(O)c(O)c12 [Quercetagetin]	85.2%	90.2%
COc1cc(O)c2c(=O)c(OC)c(-c3ccc(OC)c(OC)c3)oc2c1 [Quercetin-3,7,3',4'-tetramethylether]	58.2%	65.0%
O=c1c(O)c(-c2ccc(O)c(O)c2)oc2cc(O)cc(O)c12 [Quercetin]	110.2%	125.8%
C[C@@H]1O[C@@H](Oc2c(-c3ccc(O)c(O)c3)oc3cc(O)cc(O)c3c2=O)[C@H](O)[C@H](O)[C@H]1O.O.O [Quercitrin dihydrate]	45.2%	11.4%
Oc1cccc(O)c1 [Resorcin]	72.2%	83.0%
Oc1cccc(O)c1 [Resorcinol]	102.9%	67.1%
Oc1ccc(/C=C/c2cc(O)cc(O)c2)cc1 [Resveratrol]	79.8%	103.4%
COc1cc(O)c2c(=O)c(O)c(-c3ccc(O)c(O)c3)oc2c1 [Rhamnetin]	94.7%	119.1%
Cc1cc2nc3c(=O)[nH]c(=O)nc-3n(C[C@H](O)[C@H](O)[C@H](O)CO)c2cc1C [Riboflavin]	63.1%	43.1%
O=C(/C=C/c1ccc(O)c(O)c1)O[C@H](Cc1ccc(O)c(O)c1)C(=O)O [Rosmarinic acid]	98.8%	120.3%
C[C@@H]1O[C@@H](OC[C@H]2O[C@@H](Oc3c(-c4ccc(O)c(O)c4)oc4cc(O)cc(O)c4c3=O)[C@H](O)[C@@H](O)[C@@H]2O)[C@H](O)[C@H](O)[C@H]1O [Rutin]	49.5%	44.1%
CC(C)(C)NCC(O)c1ccc(O)c(CO)c1 (centres unmarked) [Salbutamol]	78.4%	151.4%
NC(=O)c1ccccc1O [Salicylamide]	38.2%	126.2%
O=C(O)c1ccccc1O [Salicylic acid]	78.2%	69.1%
O=C(Oc1ccccc1C(=O)O)c1ccccc1O [Salicylsalicylic acid]	88.9%	127.4%
CC1=C2[C@H]3OC(=O)[C@@H](C)[C@@H]3CC[C@@]2(C)C=CC1=O [Santonin]	101.9%	99.9%
COc1cc2ccc(=O)oc2cc1O [Scopoletin]	95.4%	81.9%
C#CCN(C)[C@H](C)Cc1ccccc1 [Selegiline hydrochloride]	43.1%	57.0%
COc1cc(/C=C/C(=O)O)cc(OC)c1O [Sinapic acid]	51.4%	22.0%
C=CC/C(=N/OS(=O)(=O)[O-])S[C@@H]1O[C@H](CO)[C@@H](O)[C@H](O)[C@H]1O.O.[K+] [Sinigrin monohydrate]	99.2%	47.6%
CC(C)NCC(O)c1ccc(NS(C)(=O)=O)cc1 (centres unmarked) [Sotalol hydrochloride]	80.1%	100.5%
CC(=O)NS(=O)(=O)c1ccc(N)cc1 [Sulfacetamide]	50.4%	100.8%
Nc1ccc(S(=O)(=O)Nc2ncccn2)cc1 [Sulfadiazine]	81.2%	107.7%
COc1cc(NS(=O)(=O)c2ccc(N)cc2)nc(OC)n1 [Sulfadimethoxine]	39.1%	102.4%
